Common to all, as to type: in vivo
The subject of data set [1] is coughs induced by citric acid spray in awake white rats. In words: Antitussive activity: change in number of citric acid-induced coughs after oral application. To be noted: 50 mgm/kg oral, compared to control group.
The subject of data set [2] is stomach ulcers in female rats. Nature of the data set: Anti-ulcerogenic activity: acetic acid-induced stomach ulcers. To be noted: three weeks. How it is done: The standard pharmacological test method of […] et al, Jap. J. Pharmac. 19, 418 (1969), was used. The abdominal cavity of female rats having a body weight of 220 to 350 gm under ether anesthesia was opened, and the stomach was exposed. […] The controls received only pulverized rat food. After three weeks, the animals were sacrificed, their stomachs were excised, and the size of the ulcer was determined by measuring its length and width.

Data set [3] in a line: Acute toxicity after oral application, 72 hours observation. Particulars: mouse, in vivo, po. How it is done: (§1) The acute toxicity was determined on groups of 5 white mice after oral application of a dose ranging between 500 mgm/kg and 5000 mgm/kg per animal (time of observation: 72 hours).
In another data set the test system is white mice. Described as above. Particulars: white mice, 72 hours. Here is the method: as §1
Data set [4] relates to secretion in anesthetized rabbits or guinea pigs. Nature of the data set: Expectorant effect: secretolytic activity, increase of secretion within 2 hours after oral application. To be noted: 8 mgm/kg oral. How it is done: The increase of secretion within 2 hours was calculated before and after application of the substance see Perry and Boyd in Pharmakol. exp. Therap. 73, 65 (1941)!.

Another data set deals with cats. In words: Circulatory effect in cats under chloralose-urethane narcosis after intravenous application. To be noted: 3 animals per dose. How it is done: The circulatory effect in cats was determined under chloralose-urethane narcosis after intravenous application of the test compound (3 animals per dose).
Setting [5] is: white mice, 72 hours observation.

Where a name gives a salt, the structure may show the parent alone. A value given as a limit tells only on which side of the number the result lay.

The LD50 is the dose expected to kill half of the subjects tested. As to `Cl.Oc1c(Br)cc(CN[C@H]2CCC[C@@H](O)C2)cc1Br` (relative stereo) [C, N-(cis-3'-hydroxy-cyclohexyl)-3,5-dibromo-4-hydroxy-benzylamine hydrochloride], in data set [1], the “Average change in the number of coughs, in per cent, 30 minutes after oral application of 50 mgm/kg” value was -35%. The “% change in ulcer size versus controls” value in data set [2] (50 mgm/kg p.o. in daily food) was -11%; in data set [2] (100 mgm/kg p.o. in daily food) it was -29%. In data set [3] (setting [5]), this molecule yielded an LD50 at 72 h of more than 1000 mg/kg. Moreover, the animals dead in the data set on white mice (1000 mgm/kg p.o.) is 0 of 5.

Regarding `CCN(Cc1cc(Br)c(O)c(Br)c1)C1CCCCC1` [B, N-ethyl-N-cyclohexyl-3,5-dibromo-4-hydroxy-benzylamine], the “Average change in the number of coughs, in per cent, 30 minutes after oral application of 50 mgm/kg” value in data set [1] is given as -34%. The change in vivo at 8 mg/kg in data set [4] was 87%. Further, in the data set on cats (8 mgm/kg), the “Circulatory effect in cats” value was “no change”. Besides, the LD50 at 72 h in data set [3] (setting [5]) is more than 1000 mg/kg. Further, the animals dead in the data set with white mice (1000 mgm/kg p.o.) is reported as 0 of 5.

Take `CCN(Cc1cc(Br)cc(Br)c1O)C1CCCCC1` [Compound A, N-ethyl-N-cyclohexyl-(3,5-dibromo-2-hydroxy)-benzylamine hydrochloride]: in data set [1], the “Average change in the number of coughs, in per cent, 30 minutes after oral application of 50 mgm/kg” value is recorded as -38%. This molecule also yielded a change in vivo at 8 mg/kg in data set [4] of 81%. Further, in the data set with cats (4 mgm/kg), the “Circulatory effect in cats” value is recorded as “no change”. In addition, the “% change in ulcer size versus controls” value was -39% in data set [2] (50 mgm/kg p.o. in daily food) and -54% in data set [2] (100 mgm/kg p.o. in daily food). The molecule further displayed an LD50 at 72 h in data set [3] of more than 1000 mg/kg. Besides, the animals dead in the data set with white mice (1000 mgm/kg p.o.) is 0 of 5.

`CCC(C)(C)NCc1cc(Br)cc(Br)c1O.Cl` [Compound I, N-tert.pentyl-3,5-dibromo-2-hydroxy-benzylamine hydrochloride] came in with a change in vivo at 8 mg/kg in data set [4] of 80%. Further, in data set [3] (setting [5]), the LD50 at 72 h is more than 5000 mg/kg. For the same molecule, in the data set on white mice (5000 mgm/kg p.o.), the animals dead is recorded as 0 of 5.

On to `Oc1c(Br)cccc1CN[C@H]1CC[C@H](O)CC1` [D, N-(trans-4'-hydroxy-cyclohexyl)-3-bromo-2-hydroxy-benzylamine], for which the change in vivo at 8 mg/kg in data set [4] is 66%. The molecule also showed an LD50 at 72 h in data set [3] (setting [5]) of more than 500 mg/kg. Further, the animals dead with white mice (500 mgm/kg p.o.) is 0 of 5.

`CN(Cc1cc(Cl)c(O)c(Br)c1)C1CCCCC1.Cl` [E, n-methyl-N-cyclohexyl-3-bromo-5-chloro-4-hydroxy-benzylamine hydrochloride]: the change in vivo at 8 mg/kg in data set [4] was found to be 65%. This molecule returned an LD50 at 72 h in data set [3] (setting [5]) of more than 500 mg/kg. Moreover, the animals dead in the data set on white mice (500 mgm/kg p.o.) is 0 of 5.

`Oc1c(Br)cc(Br)cc1CN[C@H]1CC[C@H](O)CC1` [F, N-(trans-4'-hydroxy-cyclohexyl)-3,5-dibromo-2-hydroxy-benzylamine] showed a change in vivo at 8 mg/kg in data set [4] of 70%. Also, the “% change in ulcer size versus controls” value in data set [2] (50 mgm/kg p.o. in daily food) is reported as -59%; in data set [2] (100 mgm/kg p.o. in daily food), -78%. This molecule also displayed an LD50 at 72 h in data set [3] (setting [5]) of more than 5000 mg/kg. Further, the animals dead in the data set on white mice (5000 mgm/kg p.o.) is on record as 0 of 5.

In the case of `CC(CO)(CO)NCc1cc(Br)cc(Br)c1O` [G, N-(dihydroxy-tert.butyl)-3,5-dibromo-2-hydroxy-benzylamine hydrochloride], the change in vivo at 8 mg/kg in data set [4] stood at 88%. Moreover, in data set [3] (setting [5]), the LD50 at 72 h is more than 5000 mg/kg. Further, in the data set on white mice (5000 mgm/kg p.o.), the animals dead is 0 of 5.

In data set [4], `CC(CO)(CO)NCc1cc(Cl)c(O)c(Cl)c1` [H, N-(dihydroxy-tert.butyl)-3,5-dichloro-4-hydroxy-benzylamine hydrochloride] had a change in vivo at 8 mg/kg of 88%.

On to `CN(Cc1cc(Br)cc(Br)c1O)C1CCCCC1` [J, N-methyl-N-cyclohexyl-(3,5-dibromo-2-hydroxy)-benzylamine hydrochloride], for which the “% change in ulcer size versus controls” value in data set [2] (50 mgm/kg p.o. in daily food) is reported as -73%; in data set [2] (100 mgm/kg p.o. in daily food), -82%. Besides, the LD50 at 72 h in data set [3] (setting [5]) is more than 5000 mg/kg. Moreover, in the data set with white mice (5000 mgm/kg p.o.), the animals dead is given as 1 of 5.
